In patent US20060069132A1, “Azolecarboxamide herbicides” (priority 2004, published 2006):

How the values were obtained:
wild oat = assay: Test B postemergence herbicide test; assay type: in vivo, Avena fatua
Summary of the method: (§1)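 Postemergence plants were sprayed with formulated test chemicals at 2 to 18 cm height (1- to 4-leaf stage); paddy species were grown to the 2-leaf stage. After 13 to 15 days in a greenhouse, injury was rated visually against untreated controls on a 0–100 scale (0 = no effect, 100 = complete control).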

barnyardgrass [1] = assay: Test B pre-/postemergence herbicide test; assay type: in vivo, Echinochloa crus-galli; conditions: for Plant response rating (0 to 100 scale), Barnyardgrass: 0 is no effect, 100 is complete control, preemergence; for Barnyardgrass plant response rating: Postemergence, scale 0 (no effect) to 100 (complete control)
Summary of the method: (§2)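 Greenhouse pot assay with simultaneous preemergence (treated seed) and postemergence (2–18 cm seedlings) applications of surfactant-containing, non-phytotoxic solvent formulations. Response scored visually 13–15 days later on a 0–100 scale, 100 meaning complete control.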

pigweed = assay: Test B pre-/postemergence herbicide test; assay type: in vivo, Amaranthus retroflexus; conditions: for Plant response rating (0 to 100 scale), Pigweed: 0 is no effect, 100 is complete control, preemergence
Summary of the method: (§3)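 Herbicidal effect was judged by eye on a 0–100 scale after plants stood 13 to 15 days in the greenhouse following pre- or postemergence treatment with surfactant-containing formulations.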

Surinam grass = assay: Test B pre-/postemergence herbicide test; assay type: in vivo, Urochloa decumbens; conditions: for Plant response rating (0 to 100 scale), Surinam Grass: 0 is no effect, 100 is complete control, preemergence
Summary of the method: as §3

giant foxtail = assay: Test B pre-/postemergence herbicide test; assay type: in vivo, Setaria faberi; conditions: for Plant response rating (0 to 100 scale), Foxtail, Giant: 0 is no effect, 100 is complete control, preemergence
Summary of the method: as §3

cocklebur = assay: Test B pre-/postemergence herbicide test; assay type: in vivo, Xanthium strumarium; conditions: for Plant response rating (0 to 100 scale), Cocklebur: 0 is no effect, 100 is complete control, preemergence
Summary of the method: as §2

rice = assay: Test B flooded paddy test; assay type: in vivo, Oryza sativa; conditions: scale 0 to 100 (0 no effect, 100 complete control)
Summary of the method: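 Treated at 2-leaf (paddy) or 1–4-leaf, 2–18 cm (postemergence); greenhouse 13–15 d; visual score vs control, 0 none to 100 complete control; dash = not tested.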

barnyardgrass [2] = assay: Test B flooded paddy test; assay type: in vivo, Echinochloa crus-galli; conditions: scale 0 to 100 (0 no effect, 100 complete control)
Summary of the method: (§4)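 Greenhouse test; postemergence application to plants at 1–4 leaves (2–18 cm); paddy species at 2 leaves; evaluated visually vs controls at 13–15 days; scale 0–100 (100 = complete control).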

wheat = assay: Test B postemergence herbicide test; assay type: in vivo, Triticum aestivum; set-up: key to Wheat plant response rating: 0 = no effect, 100 = complete control
Summary of the method: as §1

blackgrass = assay: Test B postemergence herbicide test; assay type: in vivo, Alopecurus myosuroides
Summary of the method: as §4

[3] = system: small flower umbrella sedge; assay: Test B flooded paddy test; assay type: in vivo, Cyperus difformis; conditions: scale 0 to 100 (0 no effect, 100 complete control)
Summary of the method: as §4

lambsquarters = assay: Test B pre-/postemergence herbicide test; assay type: in vivo, Chenopodium album; conditions: for Plant response rating (0 to 100 scale), Lambsquarters: 0 is no effect, 100 is complete control, preemergence
Summary of the method: as §3

morningglory = assay: Test B pre-/postemergence herbicide test; assay type: in vivo, Ipomoea coccinea; conditions: for Plant response rating (0 to 100 scale), Morningglory: 0 is no effect, 100 is complete control, preemergence
Summary of the method: as §2

corn = assay: Test B pre-/postemergence herbicide test; assay type: in vivo, Zea mays; conditions: for Plant response rating (0 to 100 scale), Corn: 0 is no effect, 100 is complete control, preemergence
Summary of the method: as §3

velvetleaf = assay: Test B pre-/postemergence herbicide test; assay type: in vivo, Abutilon theophrasti; conditions: for Plant response rating (0 to 100 scale), Velvetleaf: 0 is no effect, 100 is complete control, preemergence
Summary of the method: as §3

large crabgrass = assay: Test B pre-/postemergence herbicide test; assay type: in vivo, Digitaria sanguinalis; conditions: for Plant response rating (0 to 100 scale), Crabgrass, Large: 0 is no effect, 100 is complete control, preemergence
Summary of the method: as §3

ducksalad = assay: Test B flooded paddy test; assay type: in vivo, Heteranthera limosa; conditions: scale 0 to 100 (0 no effect, 100 complete control)
Summary of the method: as §4

[4] = Postemergence, 500 g ai/ha, scale 0 (no effect) to 100 (complete control)
[5] = postemergence, 125 g ai/ha, scale 0 to 100
[6] = 500 g ai/ha, scale 0 to 100, 0 no effect, 100 complete control, preemergence

Cc1nn(C(C)(C)C)nc1C(=O)Nc1cncc(C(=O)N(C)C)c1 [Compound 426]
Oat, Wild plant response rating (wild oat; [4]): 0
Oat, Wild plant response rating (wild oat; [5]): 0
Plant response rating (0 to 100 scale), Barnyardgrass (barnyardgrass [1]; 125 g ai/ha): 10
Barnyardgrass plant response rating (barnyardgrass [1]; 125 g ai/ha): 0
Barnyardgrass plant response rating (barnyardgrass [1]; 500 g ai/ha): 20
Plant response rating (0 to 100 scale), Pigweed (pigweed; 125 g ai/ha): 50
Pigweed plant response rating (pigweed; [4]): 50
Pigweed plant response rating (pigweed; [5]): 30
Plant response rating (0 to 100 scale), Surinam Grass (Surinam grass; 125 g ai/ha): 10
Surinam Grass plant response rating (Surinam grass; [4]): 20
Surinam Grass plant response rating (Surinam grass; [5]): 10
Plant response rating (0 to 100 scale), Foxtail, Giant (giant foxtail; 125 g ai/ha): 0
Foxtail, Giant plant response rating (giant foxtail; [4]): 30
Foxtail, Giant plant response rating (giant foxtail; [5]): 20
Plant response rating (0 to 100 scale), Cocklebur (cocklebur; 125 g ai/ha): 0
Cocklebur plant response rating (cocklebur; [4]): 20
Cocklebur plant response rating (cocklebur; [5]): 10
Rice plant response rating (rice; 1000 g ai/ha): 0
Barnyardgrass plant response rating (barnyardgrass [2]; 1000 g ai/ha): 0
Wheat plant response rating (wheat; [6]): 10
Wheat plant response rating (wheat; [4]): 0
Wheat plant response rating (wheat; [5]): 0
Blackgrass plant response rating (blackgrass; [4]): 0
Blackgrass plant response rating (blackgrass; [5]): 0
Sedge, Umbrella plant response rating ([3]; 1000 g ai/ha): 70
Plant response rating (0 to 100 scale), Lambsquarters (lambsquarters; 125 g ai/ha): 40
Lambsquarters plant response rating (lambsquarters; [4]): 50
Lambsquarters plant response rating (lambsquarters; [5]): 20
Plant response rating (0 to 100 scale), Morningglory (morningglory; 125 g ai/ha): 0
Morningglory plant response rating (morningglory; [4]): 50
Morningglory plant response rating (morningglory; [5]): 20
Plant response rating (0 to 100 scale), Corn (corn; 125 g ai/ha): 0
Corn plant response rating (corn; [4]): 10
Corn plant response rating (corn; [5]): 10
Plant response rating (0 to 100 scale), Velvetleaf (velvetleaf; 125 g ai/ha): 10
Velvetleaf plant response rating (velvetleaf; [4]): 40
Velvetleaf plant response rating (velvetleaf; [5]): 30
Plant response rating (0 to 100 scale), Crabgrass, Large (large crabgrass; 125 g ai/ha): 70
Crabgrass, Large plant response rating (large crabgrass; [4]): 20
Crabgrass, Large plant response rating (large crabgrass; [5]): 10
Ducksalad plant response rating (ducksalad; 1000 g ai/ha): 70

CC(C)(C)n1nc(Br)c(C(=O)Nc2cccc(C(=O)N3CC=CC3)c2)n1 [Compound 433]
Oat, Wild plant response rating (wild oat; [4]): 60
Oat, Wild plant response rating (wild oat; [5]): 50
Plant response rating (0 to 100 scale), Barnyardgrass (barnyardgrass [1]; 125 g ai/ha): 50
Barnyardgrass plant response rating (barnyardgrass [1]; 125 g ai/ha): 10
Barnyardgrass plant response rating (barnyardgrass [1]; 500 g ai/ha): 20
Plant response rating (0 to 100 scale), Pigweed (pigweed; 125 g ai/ha): 100
Pigweed plant response rating (pigweed; [4]): 70
Pigweed plant response rating (pigweed; [5]): 50
Plant response rating (0 to 100 scale), Surinam Grass (Surinam grass; 125 g ai/ha): 20
Surinam Grass plant response rating (Surinam grass; [4]): 30
Surinam Grass plant response rating (Surinam grass; [5]): 20
Plant response rating (0 to 100 scale), Foxtail, Giant (giant foxtail; 125 g ai/ha): 60
Foxtail, Giant plant response rating (giant foxtail; [4]): 40
Foxtail, Giant plant response rating (giant foxtail; [5]): 30
Plant response rating (0 to 100 scale), Cocklebur (cocklebur; 125 g ai/ha): 10
Cocklebur plant response rating (cocklebur; [4]): 90
Cocklebur plant response rating (cocklebur; [5]): 40
Rice plant response rating (rice; 125 g ai/ha): 0
Barnyardgrass plant response rating (barnyardgrass [2]; 125 g ai/ha): 30
Wheat plant response rating (wheat; [6]): 50
Wheat plant response rating (wheat; [4]): 50
Wheat plant response rating (wheat; [5]): 40
Blackgrass plant response rating (blackgrass; [4]): 40
Blackgrass plant response rating (blackgrass; [5]): 30
Sedge, Umbrella plant response rating ([3]; 125 g ai/ha): 70
Plant response rating (0 to 100 scale), Lambsquarters (lambsquarters; 125 g ai/ha): 70
Lambsquarters plant response rating (lambsquarters; [4]): 80
Lambsquarters plant response rating (lambsquarters; [5]): 40
Plant response rating (0 to 100 scale), Morningglory (morningglory; 125 g ai/ha): 40
Morningglory plant response rating (morningglory; [4]): 80
Morningglory plant response rating (morningglory; [5]): 50
Plant response rating (0 to 100 scale), Corn (corn; 125 g ai/ha): 10
Corn plant response rating (corn; [4]): 30
Corn plant response rating (corn; [5]): 20
Plant response rating (0 to 100 scale), Velvetleaf (velvetleaf; 125 g ai/ha): 40
Velvetleaf plant response rating (velvetleaf; [4]): 50
Velvetleaf plant response rating (velvetleaf; [5]): 10
Plant response rating (0 to 100 scale), Crabgrass, Large (large crabgrass; 125 g ai/ha): 90
Crabgrass, Large plant response rating (large crabgrass; [4]): 30
Crabgrass, Large plant response rating (large crabgrass; [5]): 20
Ducksalad plant response rating (ducksalad; 125 g ai/ha): 60
